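Each compound was tested at five concentrations against cells in 96-well plates for 48 hours. GI50: concentration for 50% inhibition of growth.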 Activity calls are given as the source filed them. Cut-off read from the data, not from the text of the source: active = GI50 up to about 1.1 µM and inactive = higher.
Experiments:
Assay in all cases: NCI tumour cell line growth inhibition, 48 h
A498 = test system: A498
A549 = test system: A549
CAKI-1 = test system: CAKI-1
CCRF-CEM = test system: CCRF-CEM
COLO 205 = test system: COLO 205
DLD-1 = test system: DLD-1
DMS-114 = test system: DMS-114
DMS-273 = test system: DMS-273
EKVX = test system: EKVX
HCC 2998 = test system: HCC 2998
HCT-116 = test system: HCT-116
HCT-15 = test system: HCT-15
HL-60 = test system: HL-60
HOP-18 = test system: HOP-18
HOP-62 = test system: HOP-62
HOP-92 = test system: HOP-92
HT-29 = test system: HT-29
IGROV-1 = test system: IGROV-1
K562 = test system: K562
KM-20L2 = test system: KM-20L2
KM12 = test system: KM12
LOX IMVI = test system: LOX IMVI
M19-MEL = test system: M19-MEL
MCF7 = test system: MCF7
MOLT-4 = test system: MOLT-4
Malme-3M = test system: Malme-3M
NCI-H226 = test system: NCI-H226
NCI-H23 = test system: NCI-H23
NCI-H460 = test system: NCI-H460
NCI-H522 = test system: NCI-H522
NCI/ADR-RES = test system: NCI/ADR-RES
OVCAR-3 = test system: OVCAR-3
OVCAR-4 = test system: OVCAR-4
OVCAR-5 = test system: OVCAR-5
OVCAR-8 = test system: OVCAR-8
RPMI-8226 = test system: RPMI-8226
RXF 393 = test system: RXF 393
SF-268 = test system: SF-268
SF-295 = test system: SF-295
SF-539 = test system: SF-539
SK-MEL-28 = test system: SK-MEL-28
SK-MEL-2 = test system: SK-MEL-2
SK-MEL-5 = test system: SK-MEL-5
SK-OV-3 = test system: SK-OV-3
SN12C = test system: SN12C
SNB-19 = test system: SNB-19
SNB-75 = test system: SNB-75
SNB-78 = test system: SNB-78
SW-620 = test system: SW-620
U-251 = test system: U-251
UACC-257 = test system: UACC-257
UACC-62 = test system: UACC-62
UO-31 = test system: UO-31
XF498 = test system: XF498

Q: With `CC1(CO)C(O)CCC2(C)C1C(O)CC1CC3CC12CCC3(O)CO` (centres undefined) as the molecule, how does the GI50 (A498) read?
A: The GI50 was > 225 µM (inactive).

Q: What about the GI50 (A549) of the same molecule?
A: Its GI50 is > 225 µM (inactive).

Q: And the GI50 (CAKI-1)?
A: Its GI50 is > 225 µM (inactive).

Q: And the GI50 (CCRF-CEM)?
A: The GI50 was 138 µM (inactive).

Q: What about the GI50 (COLO 205) of the same molecule?
A: Its GI50 is > 225 µM (inactive).

Q: What about the GI50 (DLD-1) of the same molecule?
A: The GI50 was > 225 µM (inactive).

Q: What about the GI50 (DMS-114) of the same molecule?
A: Its GI50 is > 225 µM (inactive).

Q: And the GI50 (DMS-273)?
A: The GI50 was 104 µM (inactive).

Q: And the GI50 (EKVX)?
A: The GI50 was > 205 µM (inactive).

Q: And the GI50 (HCC 2998)?
A: The GI50 was > 225 µM (inactive).

Q: And the GI50 (HCT-116)?
A: Its GI50 is > 217 µM (inactive).

Q: And the GI50 (HCT-15)?
A: The GI50 was over 225 µM.

Q: What about the GI50 (HL-60) of the same molecule?
A: Its GI50 is 102 µM (inactive).

Q: What about the GI50 (HOP-18) of the same molecule?
A: Its GI50 is > 225 µM (inactive).

Q: What about the GI50 (HOP-62) of the same molecule?
A: Its GI50 is > 225 µM (inactive).

Q: And the GI50 (HOP-92)?
A: The GI50 was > 225 µM (inactive).

Q: And the GI50 (HT-29)?
A: Its GI50 is > 225 µM (inactive).

Q: What about the GI50 (IGROV-1) of the same molecule?
A: Its GI50 is > 225 µM (inactive).

Q: What about the GI50 (K562) of the same molecule?
A: The GI50 was > 225 µM (inactive).

Q: What about the GI50 (KM-20L2) of the same molecule?
A: Its GI50 is > 225 µM (inactive).

Q: And the GI50 (KM12)?
A: The GI50 was > 225 µM (inactive).

Q: And the GI50 (LOX IMVI)?
A: The GI50 was > 225 µM (inactive).

Q: What about the GI50 (M19-MEL) of the same molecule?
A: The GI50 was > 153 µM (inactive).

Q: What about the GI50 (MCF7) of the same molecule?
A: The GI50 was > 217 µM (inactive).

Q: And the GI50 (MOLT-4)?
A: The GI50 was > 96.6 µM (inactive).

Q: And the GI50 (Malme-3M)?
A: The GI50 was > 225 µM (inactive).

Q: What about the GI50 (NCI-H226) of the same molecule?
A: The GI50 was 116 µM (inactive).

Q: And the GI50 (NCI-H23)?
A: Its GI50 is > 225 µM (inactive).

Q: And the GI50 (NCI-H460)?
A: The GI50 was 77.1 µM (inactive).

Q: And the GI50 (NCI-H522)?
A: Its GI50 is > 225 µM (inactive).

Q: What about the GI50 (NCI/ADR-RES) of the same molecule?
A: Its GI50 is > 225 µM (inactive).

Q: What about the GI50 (OVCAR-3) of the same molecule?
A: The GI50 was > 225 µM (inactive).

Q: And the GI50 (OVCAR-4)?
A: The GI50 was > 225 µM (inactive).

Q: What about the GI50 (OVCAR-5) of the same molecule?
A: The GI50 was > 225 µM (inactive).

Q: And the GI50 (OVCAR-8)?
A: Its GI50 is > 213 µM (inactive).

Q: What about the GI50 (RPMI-8226) of the same molecule?
A: Its GI50 is > 158 µM (inactive).

Q: And the GI50 (RXF 393)?
A: Its GI50 is > 225 µM (inactive).

Q: And the GI50 (SF-268)?
A: Its GI50 is > 191 µM (inactive).

Q: What about the GI50 (SF-295) of the same molecule?
A: Its GI50 is 91.2 µM (inactive).

Q: And the GI50 (SF-539)?
A: Its GI50 is > 225 µM (inactive).

Q: What about the GI50 (SK-MEL-28) of the same molecule?
A: The GI50 was > 225 µM (inactive).

Q: What about the GI50 (SK-MEL-2) of the same molecule?
A: Its GI50 is > 225 µM (inactive).

Q: And the GI50 (SK-MEL-5)?
A: Its GI50 is > 225 µM (inactive).

Q: What about the GI50 (SK-OV-3) of the same molecule?
A: The GI50 was > 225 µM (inactive).

Q: And the GI50 (SN12C)?
A: Its GI50 is > 225 µM (inactive).

Q: And the GI50 (SNB-19)?
A: The GI50 was > 225 µM (inactive).

Q: What about the GI50 (SNB-75) of the same molecule?
A: Its GI50 is > 189 µM (inactive).

Q: What about the GI50 (SNB-78) of the same molecule?
A: The GI50 was > 225 µM (inactive).

Q: And the GI50 (SW-620)?
A: The GI50 was > 225 µM (inactive).

Q: And the GI50 (U-251)?
A: The GI50 was > 225 µM (inactive).

Q: What about the GI50 (UACC-257) of the same molecule?
A: Its GI50 is > 225 µM (inactive).

Q: And the GI50 (UACC-62)?
A: The GI50 was > 225 µM (inactive).

Q: What about the GI50 (UO-31) of the same molecule?
A: The GI50 was > 217 µM (inactive).

Q: What about the GI50 (XF498) of the same molecule?
A: Its GI50 is 29.6 µM (inactive).

Source: ChEMBL document CHEMBL1201862, “PubChem BioAssay data set” (2004)
